Experimental data from ChEMBL document CHEMBL1201862, “PubChem BioAssay data set” (2004).
The source made the active and inactive calls.

What was measured:
[1] = inhibitors of firefly luciferase expression or activity, dose response, H4 neuroglioma cells, luminescence (AID 1990); format: functional, cell-based
[2] = Luminescence Cell-Based Dose Response HTS to Identify Inhibitors of 5'UTR Stem-Loop Driven Prion Protein mRNA Translation in H4 Neuroglioblastoma Cells. [Related pubchem assays: 1827 (Project Summary), 1813 (Primary HTS)]; format: functional
[3] = inhibitors of SNCA 5'UTR-driven reporter translation, confirmation, H4 neuroglioma cells, luminescence (AID 1988); format: functional, cell-based
[4] = growth induction of Burl-1 ts yeast mutant, dose response, counter-screen for SUMOylation pathway inhibitor project, whole organism, S. cerevisiae, luminescence (AID 463199); format: functional
H9c2 = experiment: cells; format: functional, cell-based; conditions: Rattus norvegicus, H9c2, Myocardium;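 also: confirmatory concentration-response retest of ultra-high-throughput screening hits for modulation of myocardial damage; cell death induced by hydrogen peroxide oxidative stress; compound pretreatment for 60 min then peroxide exposure for 2 h; potency is for protecting the cells against peroxide damage rather than for killing them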
[5] = target: T1, G-protein coupled receptor 35 (Homo sapiens, UniProt Q9HC97); experiment: GPR35 antagonists blocking zaprinast-driven arrestin recruitment, primary screen, imaging, U2OS, beta-arrestin-GFP, zaprinast agonist (AID 2058); format: functional;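 also: antagonist potency meaning inhibition of agonist-induced arrestin redistribution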
T1 sequence (Q9HC97 whole entry): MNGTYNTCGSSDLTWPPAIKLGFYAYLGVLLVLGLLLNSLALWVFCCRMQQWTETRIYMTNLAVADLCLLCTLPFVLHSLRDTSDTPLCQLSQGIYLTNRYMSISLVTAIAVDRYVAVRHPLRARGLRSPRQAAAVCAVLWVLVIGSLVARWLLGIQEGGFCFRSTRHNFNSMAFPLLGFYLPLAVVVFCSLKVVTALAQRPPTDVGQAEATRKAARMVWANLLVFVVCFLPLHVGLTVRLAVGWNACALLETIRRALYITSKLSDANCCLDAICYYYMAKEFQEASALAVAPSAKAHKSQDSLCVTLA

[6] = target: T1, G-protein coupled receptor 35; experiment: SAR Analysis for the identification of Selective Antagonists of ERK1/2 Activity in GPR35-Overexpressing U2OS Cells. [Related pubchem assays: 2079, 2058 ]; format: functional, cell-based
[7] = target: T2, G-protein coupled receptor 55 (Homo sapiens, UniProt Q9Y2T6); experiment: GPR55 agonists via beta-arrestin recruitment, primary screen, imaging, U2OS cells, beta-arrestin-GFP redistribution (AID 1961); format: functional
T2 sequence (Q9Y2T6 whole entry): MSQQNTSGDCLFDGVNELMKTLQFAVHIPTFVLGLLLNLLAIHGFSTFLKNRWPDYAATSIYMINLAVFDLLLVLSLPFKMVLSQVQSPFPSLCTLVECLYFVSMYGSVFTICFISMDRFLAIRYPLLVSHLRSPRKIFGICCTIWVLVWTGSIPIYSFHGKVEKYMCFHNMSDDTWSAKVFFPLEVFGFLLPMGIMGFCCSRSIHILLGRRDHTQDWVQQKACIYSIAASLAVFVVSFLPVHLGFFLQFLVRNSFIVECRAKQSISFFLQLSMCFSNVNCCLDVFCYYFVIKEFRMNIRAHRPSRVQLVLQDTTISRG

[8] = target: Tyrosine-protein phosphatase non-receptor type 12 (Homo sapiens, UniProt Q05209); experiment: SAR Selectivity Analysis of small molecule inhibitors of PEST using pCAP in a fluorescence assay. [Related pubchem assays (depositor defined):AID1779, AID1784, AID2135]; format: functional
Sequence of Tyrosine-protein phosphatase non-receptor type 12 (Q05209 whole entry): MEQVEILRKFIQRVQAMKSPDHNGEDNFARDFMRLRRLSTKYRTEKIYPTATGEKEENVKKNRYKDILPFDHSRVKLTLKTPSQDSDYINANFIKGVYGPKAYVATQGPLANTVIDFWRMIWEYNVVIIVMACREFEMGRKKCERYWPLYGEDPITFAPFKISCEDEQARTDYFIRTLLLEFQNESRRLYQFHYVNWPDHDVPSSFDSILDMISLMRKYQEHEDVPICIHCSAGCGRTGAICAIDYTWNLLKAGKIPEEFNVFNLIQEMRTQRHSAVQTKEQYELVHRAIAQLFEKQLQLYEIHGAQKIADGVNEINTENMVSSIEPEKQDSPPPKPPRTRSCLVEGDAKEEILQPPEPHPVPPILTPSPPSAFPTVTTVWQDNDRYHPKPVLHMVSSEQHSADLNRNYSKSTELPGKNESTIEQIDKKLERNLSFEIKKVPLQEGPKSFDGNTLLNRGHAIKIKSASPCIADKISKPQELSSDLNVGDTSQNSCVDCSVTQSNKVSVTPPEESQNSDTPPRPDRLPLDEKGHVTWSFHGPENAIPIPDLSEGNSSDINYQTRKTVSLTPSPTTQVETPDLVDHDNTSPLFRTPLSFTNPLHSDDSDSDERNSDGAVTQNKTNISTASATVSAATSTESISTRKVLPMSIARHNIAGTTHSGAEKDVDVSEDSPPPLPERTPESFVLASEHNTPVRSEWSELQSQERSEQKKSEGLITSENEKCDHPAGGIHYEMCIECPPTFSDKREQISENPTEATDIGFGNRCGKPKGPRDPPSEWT

[9] = target: T3, Tyrosine-protein phosphatase non-receptor type 22 (Homo sapiens, UniProt Q9Y2R2); experiment: SAR LYP1 Fluorescent Assay using OMFP substrate for In Vitro dose response studies - Set 3. [Related pubchem assays (depositor defined):AID1779, AID1784, AID2140, AID2686]; format: functional
T3 sequence (Q9Y2R2 whole entry): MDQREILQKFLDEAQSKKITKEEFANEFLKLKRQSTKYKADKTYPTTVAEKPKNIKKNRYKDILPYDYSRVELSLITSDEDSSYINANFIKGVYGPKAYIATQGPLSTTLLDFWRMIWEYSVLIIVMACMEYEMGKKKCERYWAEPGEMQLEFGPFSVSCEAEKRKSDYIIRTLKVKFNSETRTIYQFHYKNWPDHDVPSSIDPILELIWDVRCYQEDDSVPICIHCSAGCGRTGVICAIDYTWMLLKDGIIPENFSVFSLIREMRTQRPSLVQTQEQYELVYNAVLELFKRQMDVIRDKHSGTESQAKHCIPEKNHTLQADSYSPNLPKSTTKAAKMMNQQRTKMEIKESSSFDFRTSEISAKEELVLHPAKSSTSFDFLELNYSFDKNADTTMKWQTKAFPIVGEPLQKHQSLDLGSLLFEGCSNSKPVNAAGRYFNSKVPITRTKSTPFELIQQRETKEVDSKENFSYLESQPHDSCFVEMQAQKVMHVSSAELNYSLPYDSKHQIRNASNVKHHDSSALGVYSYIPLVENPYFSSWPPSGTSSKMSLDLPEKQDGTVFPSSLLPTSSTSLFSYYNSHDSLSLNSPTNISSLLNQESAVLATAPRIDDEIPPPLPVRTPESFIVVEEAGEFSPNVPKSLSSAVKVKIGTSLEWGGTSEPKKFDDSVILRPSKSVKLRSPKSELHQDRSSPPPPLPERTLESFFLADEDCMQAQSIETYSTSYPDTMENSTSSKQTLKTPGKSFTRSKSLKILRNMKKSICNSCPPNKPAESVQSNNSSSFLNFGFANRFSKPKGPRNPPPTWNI

[10] = target: T4, Tyrosine-protein phosphatase non-receptor type 7 (Homo sapiens, UniProt P35236); experiment: HePTP (PTPN7) phosphatase inhibitor potency, SAR follow-up, biochemical, set 2 (AID 449736); format: functional
T4 sequence (P35236 whole entry): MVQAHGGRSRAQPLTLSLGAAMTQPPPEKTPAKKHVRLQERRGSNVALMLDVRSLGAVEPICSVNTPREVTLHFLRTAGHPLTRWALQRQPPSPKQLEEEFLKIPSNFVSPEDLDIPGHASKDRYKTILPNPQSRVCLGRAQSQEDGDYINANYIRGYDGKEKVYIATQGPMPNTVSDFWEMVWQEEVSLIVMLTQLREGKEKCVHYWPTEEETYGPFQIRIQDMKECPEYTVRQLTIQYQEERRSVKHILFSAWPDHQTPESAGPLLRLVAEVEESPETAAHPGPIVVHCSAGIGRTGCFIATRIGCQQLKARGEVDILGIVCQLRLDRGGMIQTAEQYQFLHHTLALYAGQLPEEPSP

[11] = target: T3, Tyrosine-protein phosphatase non-receptor type 22; experiment: LYP (PTPN22) phosphatase inhibitor potency, SAR follow-up, biochemical, pCAP fluorogenic substrate, fluorescence, set 3 (AID 449727); format: functional
[12] = target: T2, G-protein coupled receptor 55; experiment: GPR55 antagonists, SAR follow-up, counter-screen for GPR35 antagonist project, imaging, image-based (AID 2397); format: functional
Coagulation factor XII = target: T5, Coagulation factor XII (Homo sapiens, UniProt P00748); experiment: FXIIa inhibitor potency, concentration-response, biochemical (AID 716); format: functional
T5 sequence (P00748 whole entry): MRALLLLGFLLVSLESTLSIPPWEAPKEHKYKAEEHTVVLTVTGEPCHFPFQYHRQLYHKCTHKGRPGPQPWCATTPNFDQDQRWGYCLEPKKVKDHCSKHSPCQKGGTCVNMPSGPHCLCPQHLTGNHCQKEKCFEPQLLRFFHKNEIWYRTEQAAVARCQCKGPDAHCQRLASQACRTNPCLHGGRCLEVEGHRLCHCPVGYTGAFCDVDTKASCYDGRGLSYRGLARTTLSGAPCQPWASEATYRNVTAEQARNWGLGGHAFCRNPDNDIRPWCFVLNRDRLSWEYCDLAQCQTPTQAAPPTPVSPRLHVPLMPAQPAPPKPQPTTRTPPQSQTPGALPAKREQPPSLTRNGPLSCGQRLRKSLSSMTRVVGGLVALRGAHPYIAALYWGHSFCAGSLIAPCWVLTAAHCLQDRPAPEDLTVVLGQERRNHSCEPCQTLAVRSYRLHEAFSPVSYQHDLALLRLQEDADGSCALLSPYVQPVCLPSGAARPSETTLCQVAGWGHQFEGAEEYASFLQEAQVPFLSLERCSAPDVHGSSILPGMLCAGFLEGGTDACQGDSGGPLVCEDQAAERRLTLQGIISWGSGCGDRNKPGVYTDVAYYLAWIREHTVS

Trypsin = Trypsin (Sus scrofa, UniProt P00761); experiment: porcine trypsin inhibitors, dose response, selectivity assay for Rce1 protease inhibitor project, biochemical, quenched peptide fluorescence, cherry-pick (AID 488789)
Sequence of Trypsin (P00761 whole entry): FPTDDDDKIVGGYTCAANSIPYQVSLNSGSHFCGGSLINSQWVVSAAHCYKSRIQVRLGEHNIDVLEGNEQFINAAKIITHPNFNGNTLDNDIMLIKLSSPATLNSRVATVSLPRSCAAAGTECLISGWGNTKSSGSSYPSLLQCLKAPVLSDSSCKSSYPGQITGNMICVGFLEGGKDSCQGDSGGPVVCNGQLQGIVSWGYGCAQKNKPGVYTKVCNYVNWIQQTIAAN

CAAX prenyl protease 2 [13] = target: T6, CAAX prenyl protease 2 (Saccharomyces cerevisiae S288c, UniProt Q03530); format: biochemical
T6 sequence (Q03530 whole entry): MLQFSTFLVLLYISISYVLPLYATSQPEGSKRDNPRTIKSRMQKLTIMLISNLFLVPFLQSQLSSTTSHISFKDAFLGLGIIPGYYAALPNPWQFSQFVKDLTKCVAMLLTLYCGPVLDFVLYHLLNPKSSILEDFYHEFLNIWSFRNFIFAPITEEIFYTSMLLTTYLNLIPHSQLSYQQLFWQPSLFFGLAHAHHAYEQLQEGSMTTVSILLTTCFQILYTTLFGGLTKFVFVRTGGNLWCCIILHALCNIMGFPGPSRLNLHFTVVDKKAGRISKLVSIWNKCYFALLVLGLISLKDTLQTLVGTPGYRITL

CAAX prenyl protease 1 = CAAX prenyl protease 1 (Saccharomyces cerevisiae S288c, UniProt P47154); experiment: Ste24 protease inhibitors, dose response, biochemical, S. cerevisiae, plate reader, cherry-pick (AID 488815)
Sequence of CAAX prenyl protease 1 (P47154 whole entry): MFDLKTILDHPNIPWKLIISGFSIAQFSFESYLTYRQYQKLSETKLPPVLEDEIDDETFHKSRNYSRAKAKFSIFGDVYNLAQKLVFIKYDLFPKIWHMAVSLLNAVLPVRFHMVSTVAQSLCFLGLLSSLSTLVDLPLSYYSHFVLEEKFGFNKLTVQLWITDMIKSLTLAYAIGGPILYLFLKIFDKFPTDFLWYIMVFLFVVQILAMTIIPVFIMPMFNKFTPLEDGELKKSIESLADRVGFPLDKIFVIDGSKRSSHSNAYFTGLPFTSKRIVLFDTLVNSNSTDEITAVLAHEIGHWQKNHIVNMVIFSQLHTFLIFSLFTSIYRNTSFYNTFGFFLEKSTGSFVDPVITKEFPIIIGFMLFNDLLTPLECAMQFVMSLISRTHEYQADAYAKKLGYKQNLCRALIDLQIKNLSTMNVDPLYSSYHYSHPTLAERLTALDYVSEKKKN

[14] = target: T7, Replicative DNA helicase DnaB (Mycobacterium tuberculosis, UniProt P9WMR3); experiment: DnaB intein splicing inhibitors, dose response, biochemical, cell-free fluorescence (AID 449749); format: functional
T7 sequence (P9WMR3 whole entry): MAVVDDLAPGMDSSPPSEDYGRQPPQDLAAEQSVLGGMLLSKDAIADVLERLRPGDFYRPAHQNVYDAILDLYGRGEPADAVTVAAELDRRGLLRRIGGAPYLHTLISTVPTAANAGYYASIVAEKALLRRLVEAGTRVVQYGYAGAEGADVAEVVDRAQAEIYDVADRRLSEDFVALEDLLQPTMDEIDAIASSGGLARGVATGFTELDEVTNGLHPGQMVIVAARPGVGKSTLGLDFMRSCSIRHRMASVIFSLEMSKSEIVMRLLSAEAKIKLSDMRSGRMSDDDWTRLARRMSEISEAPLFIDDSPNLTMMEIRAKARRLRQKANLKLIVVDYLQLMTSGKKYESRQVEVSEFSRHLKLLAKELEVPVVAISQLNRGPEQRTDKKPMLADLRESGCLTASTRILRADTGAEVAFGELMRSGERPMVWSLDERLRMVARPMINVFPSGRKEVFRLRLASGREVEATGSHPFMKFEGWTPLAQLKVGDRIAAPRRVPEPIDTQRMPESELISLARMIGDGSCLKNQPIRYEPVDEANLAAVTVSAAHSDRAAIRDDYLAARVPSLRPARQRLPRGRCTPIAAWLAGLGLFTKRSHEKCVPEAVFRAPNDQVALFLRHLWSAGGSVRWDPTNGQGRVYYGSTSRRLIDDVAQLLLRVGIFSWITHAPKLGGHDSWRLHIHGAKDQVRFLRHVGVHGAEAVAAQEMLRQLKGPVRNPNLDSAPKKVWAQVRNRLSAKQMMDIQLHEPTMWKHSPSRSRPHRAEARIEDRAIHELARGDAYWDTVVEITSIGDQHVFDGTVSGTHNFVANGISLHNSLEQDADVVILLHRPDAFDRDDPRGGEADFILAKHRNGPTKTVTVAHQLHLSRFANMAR

Protein RecA = target: T8, Protein RecA (Mycobacterium tuberculosis, UniProt P9WHJ3); experiment: Fluorescence Cell-Free Homogeneous Dose Retest to Identify Inhibitors of RecA-Intein Splicing Activity. [Related pubchem assays (depositor defined):AID2097, AID2223, AID489010, AID492950]; format: functional
T8 sequence (P9WHJ3 whole entry): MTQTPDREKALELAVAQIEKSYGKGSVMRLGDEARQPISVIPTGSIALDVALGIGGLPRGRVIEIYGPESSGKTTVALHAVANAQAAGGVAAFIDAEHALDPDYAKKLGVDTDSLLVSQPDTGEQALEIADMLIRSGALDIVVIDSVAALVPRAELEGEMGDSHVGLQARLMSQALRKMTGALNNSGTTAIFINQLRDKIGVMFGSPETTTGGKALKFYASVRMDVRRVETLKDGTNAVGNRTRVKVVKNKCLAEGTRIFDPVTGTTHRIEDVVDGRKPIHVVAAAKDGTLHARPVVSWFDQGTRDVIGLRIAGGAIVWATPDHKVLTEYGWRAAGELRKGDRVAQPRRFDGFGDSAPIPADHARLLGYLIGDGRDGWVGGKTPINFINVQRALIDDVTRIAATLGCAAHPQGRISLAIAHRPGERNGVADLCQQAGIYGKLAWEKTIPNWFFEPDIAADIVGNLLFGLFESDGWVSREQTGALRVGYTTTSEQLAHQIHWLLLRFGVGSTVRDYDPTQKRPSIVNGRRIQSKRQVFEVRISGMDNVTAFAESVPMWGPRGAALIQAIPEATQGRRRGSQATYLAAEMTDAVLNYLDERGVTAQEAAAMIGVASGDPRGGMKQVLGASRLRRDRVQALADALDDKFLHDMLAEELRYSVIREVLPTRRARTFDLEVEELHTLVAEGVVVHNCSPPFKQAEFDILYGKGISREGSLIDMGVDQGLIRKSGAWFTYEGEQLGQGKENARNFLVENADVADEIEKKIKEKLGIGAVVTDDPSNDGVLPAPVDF

CAAX prenyl protease 2 [15] = target: T9, CAAX prenyl protease 2 (Homo sapiens, UniProt Q9Y256); experiment: human Rce1 protease inhibitors, dose response, biochemical, yeast membranes, quenched-peptide fluorescence, cherry-pick (AID 588849)
T9 sequence (Q9Y256 whole entry): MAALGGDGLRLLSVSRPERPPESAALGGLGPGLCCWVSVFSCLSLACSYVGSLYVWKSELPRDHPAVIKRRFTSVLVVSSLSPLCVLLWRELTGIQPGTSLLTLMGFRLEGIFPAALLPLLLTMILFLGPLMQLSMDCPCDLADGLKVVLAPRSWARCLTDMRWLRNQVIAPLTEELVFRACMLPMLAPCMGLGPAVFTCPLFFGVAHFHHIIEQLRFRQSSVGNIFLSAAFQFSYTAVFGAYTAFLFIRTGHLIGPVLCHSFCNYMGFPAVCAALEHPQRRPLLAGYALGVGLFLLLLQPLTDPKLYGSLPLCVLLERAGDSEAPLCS

SUMO E1/E2 = SUMO E1/E2 (Homo sapiens, UniProt P63279+Q9UBE0+Q9UBT2); experiment: SAR analysis of SUMOylation using HTRF in an in-Vitro dose response assay. [Related pubchem assays (depositor defined):AID2006, AID2011, AID2018, AID2069, AID2658]; format: functional
Sequence of SUMO E1/E2 (Q9UBE0 whole entry): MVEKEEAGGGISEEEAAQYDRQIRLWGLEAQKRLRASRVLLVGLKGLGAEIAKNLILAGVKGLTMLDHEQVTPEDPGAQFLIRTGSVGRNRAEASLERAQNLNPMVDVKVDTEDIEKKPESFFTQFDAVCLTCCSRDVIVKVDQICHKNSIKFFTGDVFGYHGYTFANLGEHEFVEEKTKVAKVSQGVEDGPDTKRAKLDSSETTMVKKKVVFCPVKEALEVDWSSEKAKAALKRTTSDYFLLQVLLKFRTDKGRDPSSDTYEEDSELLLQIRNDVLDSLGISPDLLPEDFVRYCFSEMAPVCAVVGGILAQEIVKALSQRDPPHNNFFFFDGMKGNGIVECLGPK
Sequence of SUMO E1/E2 (Q9UBT2 whole entry): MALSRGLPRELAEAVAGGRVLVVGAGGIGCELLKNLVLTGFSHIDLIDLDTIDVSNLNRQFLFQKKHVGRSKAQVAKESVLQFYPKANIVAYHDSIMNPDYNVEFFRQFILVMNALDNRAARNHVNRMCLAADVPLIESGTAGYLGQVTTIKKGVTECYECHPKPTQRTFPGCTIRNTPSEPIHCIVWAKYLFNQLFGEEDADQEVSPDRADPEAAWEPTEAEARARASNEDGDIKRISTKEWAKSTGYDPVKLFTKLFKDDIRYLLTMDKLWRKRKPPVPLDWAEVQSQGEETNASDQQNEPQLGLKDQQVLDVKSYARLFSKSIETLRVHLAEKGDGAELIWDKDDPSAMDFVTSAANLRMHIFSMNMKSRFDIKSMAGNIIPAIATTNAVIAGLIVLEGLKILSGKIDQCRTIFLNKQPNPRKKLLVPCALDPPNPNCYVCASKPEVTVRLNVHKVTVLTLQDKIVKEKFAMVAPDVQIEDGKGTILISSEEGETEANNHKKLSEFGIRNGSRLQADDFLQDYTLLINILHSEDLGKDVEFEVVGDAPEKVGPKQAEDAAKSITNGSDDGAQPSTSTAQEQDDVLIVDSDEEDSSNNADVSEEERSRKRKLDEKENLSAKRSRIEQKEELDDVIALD
Sequence of SUMO E1/E2 (P63279 whole entry): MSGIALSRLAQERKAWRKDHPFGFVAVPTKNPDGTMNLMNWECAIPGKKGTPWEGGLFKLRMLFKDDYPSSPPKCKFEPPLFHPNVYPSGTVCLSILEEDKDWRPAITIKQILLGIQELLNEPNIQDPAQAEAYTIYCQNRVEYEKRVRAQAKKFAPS

CCOC(=O)c1ccccc1NC(=O)CSc1ccc(-c2ccccn2)nn1
EC50 [1]: 11.7 µM (active) | EC50 [2]: > 120 µM (not active) | EC50 [3]: 10.8 µM (active) | AC50 [4]: 62.6 µM (active) | IC50 (H9c2): 5.14 µM (active)

Cc1ccc(/C=C2\SC(=S)N(CCCC(=O)Nc3cccc(C(=O)O)c3)C2=O)cc1
IC50 [5]: < 0.5 µM (active) | IC50 [6]: 1.39 µM (active) | EC50 [7]: 1.45 µM (active) | IC50 [8]: 15.9 µM (active) | IC50 [9]: 30.2 µM (active) | IC50 [10]: 2.79 µM (active) | IC50 [11]: 39 µM (active) | IC50 [12]: > 32 µM (inactive)

CC(C)C(=O)N1CCN(c2nc(-c3ccccc3)c3c(c2C#N)CCCC3)CC1
IC50 (Coagulation factor XII): > 50 µM (inactive) | AC50 (Trypsin): 1.74 µM (active) | AC50 (CAAX prenyl protease 2 [13]): 14.4 µM (active) | AC50 (CAAX prenyl protease 1): 6.09 µM (active) | AC50 [14]: 7.76 µM (active) | EC50 (Protein RecA): 38.4 µM (active) | AC50 (CAAX prenyl protease 2 [15]): 7.27 µM (active)

O=S(=O)(Nc1ccccc1F)c1ccc2c(c1)C1C=CCC1C(c1ccc(F)cc1)N2 (stereo unspecified)
IC50 (SUMO E1/E2): > 100 µM (inactive)
